Format in all cases: cell-based, human
In one data set the test system is BT-474 cells. Description: MTS viability assay, BT-474 breast cancer cells. As to conditions: Table 6, 48 h, MTS. The procedure:
(§1) FIG. 2C. Effects of compounds 1-11 on the viability of BT-474 cells. BT-474 cells were cultured in DMEM/F12 medium supplemented with 10% FBS. Equal numbers were dispersed into 96-well plates. After 24 h, the cells were incubated with compounds 1-11 (0-30 μM) for 48 h. At the end of the incubation, MTS reagent (20% vol/vol) was added and the plates were incubated for 1-4 h. The OD490 was read with a plate reader. Wells with media but no cells were treated in similar fashion and the values utilized as blank. The results represent the mean±standard deviation of 6 independent determinations.
(§2) The cell lines were cultured from frozen stocks originally obtained from ATCC. MDA-MB-231, JIMT-1, DU145, U81, U251 cells were grown in DMEM medium. BT474, A2780s, A2780cp cells were grown in DMEM/F12 medium supplemented with 10% FBS. MiaPaCa2 was cultured in DMEM supplemented with 10% FBS and 2.5% horse serum. PC3 cells were cultured in F12K medium supplemented with 10% FBS. All the media were supplemented with penicillin/streptomycin.
(§3) The effects of the GAELs on the viability of the various epithelial cancer cell lines was determined as previously described. Briefly, equal numbers of the cells were dispersed into 96-well plates. After 24 h, the cells were incubated with the compounds (0-30 μM) for 48 h. At the end of the incubation, MTS reagent (20% vol/vol) was added and the plates were incubated for 1-4 h. The OD490 was read with a plate reader. Wells with media but no cells were treated in similar fashion and the values utilized as blank. The results represent the mean±standard deviation of 6 independent determinations.

Data set [1] deals with BT-474, JIMT-1, MDA-MB-231 (breast), DU145, PC3 (prostate), MiaPaCa2 (pancreas). Description: MTS viability, panel of epithelial cancer cell lines (ranges over the cell lines). The note with it: tricationic GAELs, FIG. 2O, Table 6. The method, then:
To determine the effect of compounds 1-10 on the viability of the epithelial cancer cell lines, exponentially growing cells, BT-474, JIMT-1, MDA-MB-231 (breast), DU145, PC3 (prostate), MiaPaCa2 (pancreas) were incubated with varying concentrations of 1-8 (0-30 μM) for 48 h followed by viability assays with the MTS reagent.
as §3

For a further data set, the system named is PC3 cells. Description: MTS viability assay, PC3 prostate cancer cells. As to conditions: Table 6, 48 h, MTS. The method, then:
FIG. 2E. Effects of compounds 1-11 on the viability of PC3 cells. PC3 cells were cultured in F12K medium supplemented with 10% FBS. Equal numbers were dispersed into 96-well plates. After 24 h, the cells were incubated with compounds 1-11 (0-30 μM) for 48 h. At the end of the incubation, MTS reagent (20% vol/vol) was added and the plates were incubated for 1-4 h. The OD490 was read with a plate reader. Wells with media but no cells were treated in similar fashion and the values utilized as blank. The results represent the mean±standard deviation of 6 independent determinations.
as §2, §3
(Formazan colour is commonly taken as a measure of viable cells.)

Another data set relates to MiaPaCa2 cells. Description: MTS viability assay, MiaPaCa2 pancreas cancer cells. The note with it: Table 6, 48 h. The method, then: as §1, with “2F.” for “2C.”, “MiaPaCa2” for “BT-474”, “DMEM” for “DMEM/F12”, “FBS and 2.5% horse serum.” for “FBS.”
as §1, with “2I.” for “2C.”, “1, 69-72” for “1-11”, “MiaPaCa2” for “BT-474”, “DMEM” for “DMEM/F12”, “FBS and 2.5% horse serum.” for “FBS.”, “1, 69-72” for “1-11 (0-30 μM)”
as §2, §3

The subject of another data set is DU145 cells. Description: MTS viability assay, DU145 prostate cancer cells. The note with it: Table 6, 48 h. The method, then: FIG. 2D. Effects of compounds 1-11 on the viability of DU145 cells. DU145 cells were cultured in DMEM medium supplemented with 10% FBS. Equal numbers were dispersed into 96-well plates. After 24 h, the cells were incubated with compounds 1-11 (0-30 μM) for 48 h. At the end of the incubation, MTS reagent (20% vol/vol) was added and the plates were incubated for 1-4 h. The OD490 was read with a plate reader. Wells with media but no cells were treated in similar fashion and the values utilized as blank. The results represent the mean±standard deviation of 6 independent determinations.
FIG. 2H. Effect of compounds 1, 69-72 on the viability of DU145 cells. DU145 cells were cultured in DMEM medium supplemented with 10% FBS. Equal numbers were dispersed into 96-well plates. After 24 h, the cells were incubated with compounds 1, 69-72 for 48 h. At the end of the incubation, MTS reagent (20% vol/vol) was added and the plates were incubated for 1-4 h. The OD490 was read with a plate reader. Wells with media but no cells were treated in similar fashion and the values utilized as blank. The results represent the mean±standard deviation of 6 independent determinations.
as §2, §3

A further data set relates to JIMT-1 cells. Description: MTS viability assay, JIMT-1 breast cancer cells. As to conditions: Table 6, 48 h. The procedure: FIG. 2B. Effects of compounds 1-11 on the viability of JIMT-1 cells. JIMT-1 cells were cultured in DMEM medium supplemented with 10% FBS. Equal numbers were dispersed into 96-well plates. After 24 h, the cells were incubated with compounds 1-11 (0-30 μM) for 48 h. At the end of the incubation, MTS reagent (20% vol/vol) was added and the plates were incubated for 1-4 h. The OD490 was read with a plate reader. Wells with media but no cells were treated in similar fashion and the values utilized as blank. The results represent the mean±standard deviation of 6 independent determinations.
FIG. 2J. Effects of compounds 1, 69-72 on the viability of JIMT-1 cells. JIMT-1 cells were cultured in DMEM medium supplemented with 10% FBS. Equal numbers were dispersed into 96-well plates. After 24 h, the cells were incubated with compounds 1, 69-72 for 48 h. At the end of the incubation, MTS reagent (20% vol/vol) was added and the plates were incubated for 1-4 h. The OD490 was read with a plate reader. Wells with media but no cells were treated in similar fashion and the values utilized as blank. The results represent the mean±standard deviation of 6 independent determinations.
as §2, §3

The test system of a further data set is MDA-MB-231 cells. Description: MTS viability assay, MDA-MB-231 breast cancer cells. The note with it: Table 6, 48 h. The procedure:
FIG. 2A. Effects of compounds 1-11 on the viability of MDA-MB231 cells. MDA-MB-231 cells were cultured in DMEM medium supplemented with 10% FBS. Equal numbers were dispersed into 96-well plates. After 24 h, the cells were incubated with compounds 1-11 (0-30 μM) for 48 h. At the end of the incubation, MTS reagent (20% vol/vol) was added and the plates were incubated for 1-4 h. The OD490 was read with a plate reader. Wells with media but no cells were treated in similar fashion and the values utilized as blank. The results represent the mean±standard deviation of 6 independent determinations.
FIG. 2K. Effects of compounds 1, 69-72 on the viability of MDA-MB-231 cells. MDA-MB-231 cells were cultured in DMEM medium supplemented with 10% FBS. Equal numbers were dispersed into 96-well plates. After 24 h, the cells were incubated with compounds 1, 69-72 for 48 h. At the end of the incubation, MTS reagent (20% vol/vol) was added and the plates were incubated for 1-4 h. The OD490 was read with a plate reader. Wells with media but no cells were treated in similar fashion and the values utilized as blank. The results represent the mean±standard deviation of 6 independent determinations.
as §2, §3

Each structure is given as a SMILES string.

For orientation: CC50 means the concentration giving 50% cytotoxicity. Consider `CCCCCCCCCCCCCCCCOC[C@H](COC1O[C@H](CN)[C@@H](O)[C@H](O)[C@H]1NCCCCCCCCCCCCN)OC` (stereo partly shown) [Compound 75, 1-O-Hexadecyl-2-O-methyl-3-O-[2′-N-(12-aminododecyl)-2′,6′-diamino-2′,6′-dideoxy-glucopyranoside]-sn-glycerol], for which the CC50 in the data set on BT-474 cells (read-out: BT474 CC50) came out at 13.5 µM; with PC3 cells (read-out: PC3 CC50), 8.5 µM; in the data set with MiaPaCa2 cells (read-out: MiaPaCa2 CC50), 8.5 µM; in the data set on DU145 cells (read-out: DU145 CC50) it was 7.5 µM; in the data set on JIMT-1 cells (read-out: JIMT1 CC50), 8 µM; in the data set with MDA-MB-231 cells (read-out: MB-MDA-231 CC50), 5.5 µM. Further, the CC90 with BT-474 cells (read-out: BT474 CC90) turned out to be 16.5 µM; in the data set with PC3 cells (read-out: PC3 CC90) it was 11.5 µM; in the data set with MiaPaCa2 cells (read-out: MiaPaCa2 CC90), 12 µM; in the data set with DU145 cells (read-out: DU145 CC90), 9.5 µM; with JIMT-1 cells (read-out: JIMT1 CC90) it was 9.5 µM; in the data set with MDA-MB-231 cells (read-out: MB-MDA-231 CC90) it was 9.5 µM. Further, the “cytotoxicity against all cell lines examined” value in data set [1] is “cytotoxic”.

(Values after patent publication US10806746B2, “Di- and tri-cationic glycosylated antitumor ether lipids, L-gucosylated gaels and rhamnose-linked gaels as cytotoxic agents against epithelial cancer cells and cancer stem cells” (The University of Manitoba, priority 2014, dated 2020).)
